ChEMBL document CHEMBL5537196, “Discovery of KIN-3248, An Irreversible, Next Generation FGFR Inhibitor for the Treatment of Advanced Tumors Harboring FGFR2 and/or FGFR3 Gene Alterations” (J Med Chem, 2024)

Legend:
[1] = AUC (0 to 24 hrs) in Beagle dog at 10 mg/kg,po administrated at 0.25 to 24 hrs by LC-MS/MS analysis; type: ADME, organism-based, Canis lupus familiaris; settings: in vivo, time 0.25-24 hrs
[2] = test system: RT-112; assay: Antiproliferative activity against human RT-112 cells expressing FGFR3 K650M mutant assessed as inhibition of cell growth incubated for 5 days by Cell-titer glo assay; settings: RT-112, 120 h
[3] = test system: SNU-16; assay: Antiproliferative activity against human SNU-16 cells assessed as inhibition of cell growth incubated for 5 days by Cell-titer glo assay; settings: SNU-16, 120 h
[4] = test system: RT-112; assay: Antiproliferative activity against human RT-112 cells expressing FGFR3 N540K mutant assessed as inhibition of cell growth incubated for 5 days by Cell-titer glo assay; settings: RT-112, 120 h
[5] = Antiproliferative activity against human ICC13-7 cells expressing FGFR2 V565F mutant assessed as inhibition of cell growth incubated for 10 days by Cell-titer glo assay; settings: ICC13-7, 240 h
[6] = Cmax in Beagle dog at 10 mg/kg,po administrated at 0.25 to 24 hrs by LC-MS/MS analysis; type: ADME, organism-based, Canis lupus familiaris; settings: in vivo, time 0.25-24 hrs
[7] = Oral bioavailability in Sprague-Dawley rat at 15 mg/kg administrated at 0.25 to 24 hrs by LC-MS/MS analysis; type: ADME, organism-based; settings: in vivo, time 0.25-24 hrs
[8] = Antiproliferative activity against human ICC13-7 cells expressing FGFR2 N550K mutant assessed as inhibition of cell growth incubated for 10 days by Cell-titer glo assay; settings: ICC13-7, 240 h
[9] = test system: RT-112; assay: Antiproliferative activity against human RT-112 cells assessed as inhibition of cell growth incubated for 5 days by Cell-titer glo assay; settings: RT-112, 120 h
[10] = Half life in Beagle dog at 5 mg/kg,iv administrated at 0.25 to 24 hrs by LC-MS/MS analysis; type: ADME, organism-based, Canis lupus familiaris; settings: in vivo, time 0.25-24 hrs
[11] = Total clearance in Beagle dog at 5 mg/kg,iv administrated at 0.25 to 24 hrs by LC-MS/MS analysis; type: ADME, organism-based, Canis lupus familiaris; settings: in vivo, time 0.25-24 hrs
[12] = Intrinsic clearance in human liver microsomes; type: ADME, Microsome; settings: read-out: CLH
[13] = Half life in Sprague-Dawley rat at 5 mg/kg,iv administrated at 0.25 to 24 hrs by LC-MS/MS analysis; type: ADME, organism-based; settings: in vivo, time 0.25-24 hrs
[14] = Oral bioavailability in Beagle dog at 10 mg/kg administrated at 0.25 to 24 hrs by LC-MS/MS analysis; type: ADME, organism-based, Canis lupus familiaris; settings: in vivo, time 0.25-24 hrs
[15] = test system: RT-112; assay: Antiproliferative activity against human RT-112 cells expressing FGFR3 assessed as inhibition of cell growth incubated for 5 days by Cell-titer glo assay; settings: RT-112, 120 h
[16] = Intrinsic clearance in human hepatocyte measured per 10^6 cells; type: ADME, cell-based; settings: hepatocytes, read-out: CLH
[17] = Antiproliferative activity against human ICC13-7 cells assessed as inhibition of cell growth incubated for 3 days by Cell-titer glo assay; settings: ICC13-7, 72 h
[18] = test system: CC-LP-1; assay: Antiproliferative activity against human CC-LP-1 cells assessed as inhibition of cell growth incubated for 3 days by Cell-titer glo assay; settings: CC-LP-1, 72 h
[19] = Cmax in Sprague-Dawley rat at 15 mg/kg,po administrated at 0.25 to 24 hrs by LC-MS/MS analysis; type: ADME, organism-based; settings: in vivo, time 0.25-24 hrs
[20] = AUC (0 to 24 hrs) in Sprague-Dawley rat at 15 mg/kg,po administrated at 0.25 to 24 hrs by LC-MS/MS analysis; type: ADME, organism-based; settings: in vivo, time 0.25-24 hrs
[21] = test system: CC-LP-1; assay: Antiproliferative activity against human CC-LP-1 cells expressing FGFR2 V565F mutant assessed as inhibition of cell growth incubated for 3 days by Cell-titer glo assay; settings: CC-LP-1, 72 h
[22] = test system: CC-LP-1; assay: Antiproliferative activity against human CC-LP-1 cells expressing FGFR2 N550K mutant assessed as inhibition of cell growth incubated for 3 days by Cell-titer glo assay; settings: CC-LP-1, 72 h
[23] = test system: RT-112; assay: Antiproliferative activity against human RT-112 cells expressing FGFR3 V555M mutant assessed as inhibition of cell growth incubated for 5 days by Cell-titer glo assay; settings: RT-112, 120 h
[24] = Total clearance in Sprague-Dawley rat at 5 mg/kg,iv administrated at 0.25 to 24 hrs by LC-MS/MS analysis; type: ADME, organism-based; settings: in vivo, time 0.25-24 hrs
[25] = test system: CC-LP-1; assay: Antiproliferative activity against human CC-LP-1 cells expressing FGFR2 N550H mutant assessed as inhibition of cell growth incubated for 3 days by Cell-titer glo assay; type: functional, cell-based; settings: CC-LP-1, 72 h

Molecule C=CC(=O)N1C[C@@H](n2nc(C#Cc3cc4ncn(C5CC5)c4cc3Cl)c(C(N)=O)c2NC)C[C@@H]1COC has an AUC(0-t) [1] of 498 ng·h/mL, an IC50 [2] of 12.8 nM and an IC50 [3] of 6 nM. For the same molecule, the IC50 [4] was 26.3 nM, the IC50 [5] was 0.9 nM and the Cmax [6] was 289 ng/mL. It also gave a bioavailability [7] of 16.4%, an IC50 [8] of 6.1 nM and an IC50 [9] of 7.2 nM. The half-life [10] was 4.94 h, the clearance [11] was 44.4 mL/min/kg and the microsomal CLint [12] was 106 µL/min/mg. For the same molecule, the half-life [13] was 6.17 h, the bioavailability [14] was 13.1% and the IC50 [15] was 11.2 nM. The hepatocyte CLint [16] was 14.4 µL/min/1e6 cells, the IC50 [17] was 2.2 nM and the IC50 [18] was 4.3 nM. It also gave a Cmax [19] of 519 ng/mL, an AUC(0-t) [20] of 1500 ng·h/mL and an IC50 [21] of 1.8 nM. It also gave an IC50 [22] of 6.5 nM, an IC50 [23] of 19.5 nM and a clearance [24] of 26.8 mL/min/kg.
Work on COc1cc(OC)cc(N(CCNC(C)C)c2ccc3ncc(-c4cnn(C)c4)nc3c2)c1 [ERDAFITINIB] yielded an IC50 [2] of 39 nM, an IC50 [3] of 2.7 nM and an IC50 [4] of 107 nM. The IC50 [5] was over 2800 nM, the IC50 [8] was 131 nM and the IC50 [9] was 1.3 nM. The IC50 [15] was 2.4 nM, the IC50 [17] was 1.1 nM and the IC50 [18] was 2.3 nM. For the same molecule, the IC50 [21] was 1370 nM, the IC50 [25] was 10.8 nM and the IC50 [22] was 94.8 nM. The IC50 [23] was 603 nM.
